These results are taken from US12673975B2, “Cyclic peptide, cell scaffold material, cell separating material, and medium” (FUJIFILM Corporation, priority 2019, dated 2026).

Like-named read-outs stand apart in the source and are kept apart here. Starred links: 1 amine or outer side, 2 acyl side, 3 side chain; linkers in the order of their positions; H or OH if unused. Positions of bridges follow the written chain, without caps; N, C: chain ends. Non-standard residues stand in square brackets, D forms with d. Residues, ends and D or L forms follow the SMILES beside them. hCys = N[C@@H](CCS)C(=O)O; Dab = NCC[C@H](N)C(=O)O; Dap = NC[C@H](N)C(=O)O; X1 = O=C(C[*:2])[*:1]; X2 = O=C(C[*:1])[*:2]

Data set [1] in a line: Evaluation of molecule stability (alkali treatment, residual rate by LC/MS). The data set is classed as physicochemical. The following applies: for Performance evaluation: Stability (residual rate of cyclic peptide after alkali treatment): 500 μM peptide aqueous solution plus equivalent of 1 M sodium hydroxide, 15° C., 3 hours, LC/MS peak area; for Stability (molecule stability, residual rate of the cyclic peptide rank): alkali treatment, residual rate by LC/MS. The essentials:
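Stability read as percent of summed LC/MS peak area remaining versus untreated peptide (C18, 45 °C, 10 mM ammonium formate pH 3, ESI positive/negative). Treatment: 500 μM peptide in water plus an equivalent of 1 M NaOH, 15 °C for 3 hours.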

For data set [2], the target named is human integrin αvβ5 (Homo sapiens, UniProt P06756+P18084). Nature of the data set: Evaluation of integrin binding property (surface plasmon resonance, Biacore 3000, immobilized cyclic peptide). The essentials:
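Human αvβ5 (30-1,000 nM) flowed for 10 min at 25 °C over immobilized cyclic peptide in 20 mM HEPES, 150 mM NaCl, 5 mM MgCl2, pH 7.4, followed by 30 min running buffer and 0.5 M EDTA regeneration. Dissociation constant from peptide minus unimmobilized channel, scored into standard grades.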
For orientation: SPR reads the build-up and loss of mass on a sensor chip optically.

Where [3] appears, read: SPR, 25° C., HEPES buffer with 5 mM magnesium chloride, integrin 30-1,000 nM, read-out: Performance evaluation: Binding activity (dissociation constant between the cyclic peptide and human integrin αvβ5).
Setting [4] is: surface plasmon resonance, immobilized cyclic peptide, human integrin αvβ5, read-out: Binding activity (integrin binding property, dissociation constant rank).

human integrin αvβ5, sequence (P06756 31-1048): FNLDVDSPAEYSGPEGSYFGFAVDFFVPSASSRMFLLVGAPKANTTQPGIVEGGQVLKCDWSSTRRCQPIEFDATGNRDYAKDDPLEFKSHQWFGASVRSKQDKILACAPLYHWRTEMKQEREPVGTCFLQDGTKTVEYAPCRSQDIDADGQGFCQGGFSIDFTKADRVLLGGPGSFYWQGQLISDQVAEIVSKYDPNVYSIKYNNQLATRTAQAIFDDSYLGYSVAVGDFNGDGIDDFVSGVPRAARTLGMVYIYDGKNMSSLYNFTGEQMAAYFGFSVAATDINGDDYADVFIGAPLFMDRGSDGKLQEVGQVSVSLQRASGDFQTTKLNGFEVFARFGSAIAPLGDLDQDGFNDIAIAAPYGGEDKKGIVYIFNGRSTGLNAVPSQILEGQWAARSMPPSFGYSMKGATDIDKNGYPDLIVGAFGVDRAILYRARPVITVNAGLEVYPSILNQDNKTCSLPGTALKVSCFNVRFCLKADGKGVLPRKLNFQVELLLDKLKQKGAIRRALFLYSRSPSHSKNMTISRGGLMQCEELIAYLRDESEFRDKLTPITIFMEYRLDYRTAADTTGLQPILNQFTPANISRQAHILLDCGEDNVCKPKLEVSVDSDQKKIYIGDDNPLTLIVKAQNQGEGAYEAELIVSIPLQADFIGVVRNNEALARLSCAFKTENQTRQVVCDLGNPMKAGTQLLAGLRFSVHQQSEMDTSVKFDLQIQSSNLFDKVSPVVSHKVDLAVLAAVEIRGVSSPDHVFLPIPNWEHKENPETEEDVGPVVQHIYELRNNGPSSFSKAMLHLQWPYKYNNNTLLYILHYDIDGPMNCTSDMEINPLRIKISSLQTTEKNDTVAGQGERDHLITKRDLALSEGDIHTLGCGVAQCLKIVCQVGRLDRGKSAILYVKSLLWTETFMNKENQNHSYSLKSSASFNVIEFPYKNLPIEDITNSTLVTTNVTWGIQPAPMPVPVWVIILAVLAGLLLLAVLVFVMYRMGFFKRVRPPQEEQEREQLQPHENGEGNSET
human integrin αvβ5, sequence (P18084 24-799): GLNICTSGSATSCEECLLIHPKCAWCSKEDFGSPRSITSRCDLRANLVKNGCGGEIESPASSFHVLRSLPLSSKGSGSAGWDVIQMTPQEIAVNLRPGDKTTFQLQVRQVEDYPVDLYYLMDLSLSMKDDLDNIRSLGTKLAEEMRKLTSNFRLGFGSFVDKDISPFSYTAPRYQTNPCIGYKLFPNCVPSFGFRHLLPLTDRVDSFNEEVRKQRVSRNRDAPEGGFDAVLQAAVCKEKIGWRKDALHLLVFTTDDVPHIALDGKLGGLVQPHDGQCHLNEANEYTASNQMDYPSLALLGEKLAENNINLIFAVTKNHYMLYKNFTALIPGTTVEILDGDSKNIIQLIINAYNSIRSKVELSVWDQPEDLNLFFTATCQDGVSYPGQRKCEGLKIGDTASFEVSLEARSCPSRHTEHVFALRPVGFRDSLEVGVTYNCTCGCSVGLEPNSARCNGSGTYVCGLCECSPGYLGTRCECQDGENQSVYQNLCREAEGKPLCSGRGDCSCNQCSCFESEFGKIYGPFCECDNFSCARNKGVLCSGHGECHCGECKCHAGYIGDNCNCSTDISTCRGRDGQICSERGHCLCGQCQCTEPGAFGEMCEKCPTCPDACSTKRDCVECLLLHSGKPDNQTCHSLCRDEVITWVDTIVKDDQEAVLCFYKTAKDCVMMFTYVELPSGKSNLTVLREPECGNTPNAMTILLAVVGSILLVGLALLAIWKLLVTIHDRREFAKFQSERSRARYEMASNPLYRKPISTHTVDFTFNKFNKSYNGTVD

In the case of `C[C@H](NC(=O)[C@H](CCCCN)NC(=O)[C@H](CCCCN)NC(=O)[C@@H](N)CCCCN)C(=O)N[C@H]1CNC(=O)CSCC[C@@H](C(N)=O)NC(=O)[C@H](CCCNC(=N)N)NC(=O)[C@H](Cc2ccc(O)cc2)NC(=O)[C@H](CC(N)=O)NC(=O)[C@H](CC(=O)O)NC(=O)CNC(=O)[C@H](CCCNC(=N)N)NC(=O)[C@@H]2CCCN2C(=O)[C@H](CCC(=O)O)NC1=O` [Cyclic peptide 53, KKKA(Dap(acetyl))EPRGDNYR-(Hcy)] (H-KKKA[Dap]EPRGDNYR[hCys]-NH2; linker 5-14 via X1), in data set [1], the “Performance evaluation: Stability (residual rate of cyclic peptide after alkali treatment)” value is “B (The residual rate of the cyclic peptide is 50% or more and less than 70%.)”. For the same compound, in data set [2] (setting [3]), the Kd lay in the range of 50 to 100 nM.
As to `C[C@H](NC(=O)[C@@H]1CCNC(=O)CSCC[C@H](NC(=O)[C@H](C)NC(=O)[C@H](CCCCN)NC(=O)[C@H](CCCCN)NC(=O)[C@@H](N)CCCCN)C(=O)N[C@@H]([C@@H](C)O)C(=O)N2CCC[C@H]2C(=O)N[C@@H](CCCNC(=N)N)C(=O)NCC(=O)N[C@@H](CC(=O)O)C(=O)N[C@@H]([C@@H](C)O)C(=O)N[C@@H](Cc2ccccc2)C(=O)N[C@@H](CCCNC(=N)N)C(=O)N1)C(=O)O` [Cyclic peptide 75, KKKA-(Hcy)-TPRGDTFR(Dab(acetyl))A] (H-KKKA[hCys]TPRGDTFR[Dab]A-OH; linker 5-14 via X2), the “Performance evaluation: Stability (residual rate of cyclic peptide after alkali treatment)” value in data set [1] is reported as “A (The residual rate of the cyclic peptide is 70% or more.)”. In data set [2] (setting [3]), the Kd was < 50 nM.
Consider `C[C@@H]1NC(=O)[C@H](Cc2ccccc2)NC(=O)[C@H](CO)NC(=O)[C@H](CC(=O)O)NC(=O)CNC(=O)[C@H](CCCNC(=N)N)NC(=O)[C@H]([C@@H](C)O)NC(=O)[C@H]([C@@H](C)O)NC(=O)[C@@H](NC(=O)[C@H](CCCCN)NC(=O)[C@H](CCCCN)NC(=O)[C@@H](N)CCCCN)CCSCC(=O)NCC[C@@H](C(=O)O)NC1=O` [Cyclic peptide 157, KKK-(Hcy)-TTRGDSFA(Dab(acetyl))] (H-KKK[hCys]TTRGDSFA[Dab]-OH; linker 4-13 via X2), for which, in data set [1], the “Stability (molecule stability, residual rate of the cyclic peptide rank)” value was “A (The residual rate of the cyclic peptide is 70% or more.)”. Also, the Kd in data set [2] (setting [4]) was < 50 nM.
Regarding `CC(C)[C@@H]1NC(=O)[C@@H](NC(=O)[C@H](C)NC(=O)[C@H](CCCCN)NC(=O)[C@H](CCCCN)NC(=O)[C@@H](N)CCCCN)CCSCC(=O)NCC[C@@H](C(=O)N[C@@H](C)C(=O)O)NC(=O)[C@H](C)NC(=O)[C@H](Cc2ccccc2)NC(=O)[C@H](C)NC(=O)[C@H](CC(=O)O)NC(=O)CNC(=O)[C@H](CCCNC(=N)N)NC(=O)[C@@H]2CCCN2C1=O` [Cyclic peptide 91, KKKA-(Hcy)-VPRGDAFA(Dab(acetyl))A] (H-KKKA[hCys]VPRGDAFA[Dab]A-OH; linker 5-14 via X2), the “Performance evaluation: Stability (residual rate of cyclic peptide after alkali treatment)” value in data set [1] is reported as “A (The residual rate of the cyclic peptide is 70% or more.)”. Besides, in data set [2] (setting [3]), the Kd was < 50 nM.
On to `N=C(N)NCCC[C@@H]1NC(=O)[C@H](Cc2ccc(O)cc2)NC(=O)[C@H](CC(N)=O)NC(=O)[C@H](CC(=O)O)NC(=O)CNC(=O)[C@H](CCCNC(=N)N)NC(=O)[C@@H]2CCCN2C(=O)[C@H](CCC(=O)O)NC(=O)[C@@H](NC(=O)[C@H](CCCCN)NC(=O)[C@H](CCCCN)NC(=O)[C@@H](N)CCCCN)CNC(=O)CSC[C@@H](C(=O)O)NC1=O` [Cyclic peptide 167, KKK(Dap(acetyl))EPRGDNYR(C), reference compound] (H-KKK[Dap]EPRGDNYRC-OH; linker 4-13 via X1), for which the “Stability (molecule stability, residual rate of the cyclic peptide rank)” value in data set [1] is recorded as “D (The residual rate of the cyclic peptide is less than 30%.)”. In data set [1] (summary of Table 9 to Table 13), the “molecule stability (in words)” value is given as “a practically sufficient molecule stability could be obtained”. Also, the Kd in data set [2] (setting [4]) lay in the range of 50 to 100 nM.
For `C[C@H](NC(=O)[C@H](CCCCN)NC(=O)[C@H](CCCCN)NC(=O)[C@@H](N)CCCCN)C(=O)N[C@H]1CCSCC(=O)NCC[C@@H](C(N)=O)NC(=O)[C@H](CCCNC(=N)N)NC(=O)[C@H](Cc2ccc(O)cc2)NC(=O)[C@H](CC(N)=O)NC(=O)[C@H](CC(=O)O)NC(=O)CNC(=O)[C@H](CCCNC(=N)N)NC(=O)[C@@H]2CCCN2C(=O)[C@H](CCC(=O)O)NC1=O` [Cyclic peptide 50, KKKA-(Hcy)-EPRGDNYR(Dab(acetyl))] (H-KKKA[hCys]EPRGDNYR[Dab]-NH2; linker 5-14 via X2), the “Performance evaluation: Stability (residual rate of cyclic peptide after alkali treatment)” value in data set [1] was “A (The residual rate of the cyclic peptide is 70% or more.)”. Also, the Kd in data set [2] (setting [3]) was 100 to 200 nM.
Take `CC(C)[C@@H]1NC(=O)[C@@H](NC(=O)[C@H](C)NC(=O)[C@H](CCCCN)NC(=O)[C@H](CCCCN)NC(=O)[C@H](CCCCN)NC(=O)[C@H](CCCCN)NC(=O)[C@@H](N)CCCCN)CCSCC(=O)NCC[C@@H](C(=O)N[C@@H](C)C(=O)O)NC(=O)[C@H](C)NC(=O)[C@H](Cc2ccccc2)NC(=O)[C@H]([C@@H](C)O)NC(=O)[C@H](CC(=O)O)NC(=O)CNC(=O)[C@H](CCCNC(=N)N)NC(=O)[C@@H]2CCCN2C1=O` [Cyclic peptide 111, KKKKKA-(Hcy)-VPRGDTFA(Dab(acetyl))A] (H-KKKKKA[hCys]VPRGDTFA[Dab]A-OH; linker 7-16 via X2): the “Stability (molecule stability, residual rate of the cyclic peptide rank)” value in data set [1] is given as “A (The residual rate of the cyclic peptide is 70% or more.)”. Moreover, the Kd in data set [2] (setting [4]) was < 50 nM.
On to `CC[C@H](C)[C@@H]1NC(=O)[C@@H](NC(=O)[C@H](C)NC(=O)[C@H](CCCCN)NC(=O)[C@H](CCCCN)NC(=O)[C@@H](N)CCCCN)CCSCC(=O)NCC[C@@H](C(=O)O)NC(=O)[C@H](C)NC(=O)[C@H](Cc2ccccc2)NC(=O)[C@H](CO)NC(=O)[C@H](CC(=O)O)NC(=O)CNC(=O)[C@H](CCCNC(=N)N)NC(=O)[C@@H]2CCCN2C1=O` [Cyclic peptide 162, KKKA-(Hcy)-IPRGDSFA(Dab(acetyl))] (H-KKKA[hCys]IPRGDSFA[Dab]-OH; linker 5-14 via X2), for which the “Stability (molecule stability, residual rate of the cyclic peptide rank)” value in data set [1] is on record as “A (The residual rate of the cyclic peptide is 70% or more.)”. In data set [2] (setting [4]), the Kd is < 50 nM.
`CC(C)[C@@H]1NC(=O)[C@@H](NC(=O)[C@H](C)NC(=O)[C@H](CCCCN)NC(=O)[C@H](CCCCN)NC(=O)[C@@H](N)CCCCN)CCSCC(=O)NCCCC[C@@H](C(=O)N[C@@H](C)C(=O)O)NC(=O)[C@H](C)NC(=O)[C@H](Cc2ccccc2)NC(=O)[C@H]([C@@H](C)O)NC(=O)[C@H](CC(=O)O)NC(=O)CNC(=O)[C@H](CCCNC(=N)N)NC(=O)[C@@H]2CCCN2C1=O` [Cyclic peptide 121, KKKA-(Hcy)-VPRGDTFA(Lys(acetyl))A] (H-KKKA[hCys]VPRGDTFAKA-OH; linker 5-14 via X2): the “Stability (molecule stability, residual rate of the cyclic peptide rank)” value in data set [1] was “A (The residual rate of the cyclic peptide is 70% or more.)”. Besides, the Kd in data set [2] (setting [4]) is < 50 nM.
In the case of `CC(C)[C@@H]1NC(=O)[C@@H](NC(=O)[C@H](CCCCN)NC(=O)[C@H](CCCCN)NC(=O)[C@@H](N)CCCCN)CCSCC(=O)NCC[C@@H](C(=O)O)NC(=O)[C@H](C)NC(=O)[C@H](Cc2ccccc2)NC(=O)[C@H]([C@@H](C)O)NC(=O)[C@H](CC(=O)O)NC(=O)CNC(=O)[C@H](CCCNC(=N)N)NC(=O)[C@@H]2CCCN2C1=O` [Cyclic peptide 104, KKK-(Hcy)-VPRGDTFA(Dab(acetyl))] (H-KKK[hCys]VPRGDTFA[Dab]-OH; linker 4-13 via X2), the “Stability (molecule stability, residual rate of the cyclic peptide rank)” value in data set [1] is reported as “A (The residual rate of the cyclic peptide is 70% or more.)”. Besides, the Kd in data set [2] (setting [4]) was < 50 nM.
In the case of `N=C(N)NCCC[C@@H]1NC(=O)[C@H](Cc2ccc(O)cc2)NC(=O)[C@H](CC(N)=O)NC(=O)[C@H](CC(=O)O)NC(=O)CNC(=O)[C@H](CCCNC(=N)N)NC(=O)[C@@H]2CCCN2C(=O)[C@H](CCC(=O)O)NC(=O)[C@@H](NC(=O)[C@H](CC(=O)O)NC(=O)[C@H](CCCCN)NC(=O)[C@H](CCCCN)NC(=O)[C@@H](N)CCCCN)CCSCC(=O)NCC[C@@H](C(=O)N[C@@H](CC(=O)O)C(=O)O)NC1=O` [Cyclic peptide 38, KKKD-(Hcy)-EPRGDNYR(Dab(acetyl))D] (H-KKKD[hCys]EPRGDNYR[Dab]D-OH; linker 5-14 via X2), in data set [1], the “Performance evaluation: Stability (residual rate of cyclic peptide after alkali treatment)” value is reported as “A (The residual rate of the cyclic peptide is 70% or more.)”. Moreover, the Kd in data set [2] (setting [3]) lay within 50 to 100 nM.
In the case of `CC[C@H](C)[C@@H]1NC(=O)[C@H](C)NC(=O)[C@@H](NC(=O)CNC(=O)[C@H](CCCCN)NC(=O)[C@H](CCCCN)NC(=O)[C@@H](N)CCCCN)CCSCC(=O)NCC[C@@H](C(=O)N[C@@H](C)C(=O)O)NC(=O)[C@H](C)NC(=O)[C@H](CCCNC(=N)N)NC(=O)[C@H](Cc2ccccc2)NC(=O)[C@H](CC(N)=O)NC(=O)[C@H](CC(=O)O)NC(=O)CNC(=O)[C@H](CCCNC(=N)N)NC(=O)[C@@H]2CCCN2C1=O` [Cyclic peptide 20, KKKG-(Hcy)-AIPRGDNFRA(Dab(acetyl))A] (H-KKKG[hCys]AIPRGDNFRA[Dab]A-OH; linker 5-16 via X2), the “Performance evaluation: Stability (residual rate of cyclic peptide after alkali treatment)” value in data set [1] was “A (The residual rate of the cyclic peptide is 70% or more.)”. In addition, the Kd in data set [2] (setting [3]) was in the range of 50 to 100 nM.
As to `CC[C@H](C)[C@@H]1NC(=O)[C@@H](NC(=O)[C@H](C)NC(=O)[C@H](CCCCN)NC(=O)[C@H](CCCCN)NC(=O)[C@@H](N)CCCCN)CCSCC(=O)NCC[C@@H](C(=O)N[C@@H](C)C(=O)O)NC(=O)[C@H](C)NC(=O)[C@H](Cc2ccccc2)NC(=O)[C@H](CO)NC(=O)[C@H](CC(=O)O)NC(=O)CNC(=O)[C@H](CCCNC(=N)N)NC(=O)[C@@H]2CCCN2C1=O` [Cyclic peptide 92, KKKA-(Hcy)-IPRGDSFA(Dab(acetyl))A] (H-KKKA[hCys]IPRGDSFA[Dab]A-OH; linker 5-14 via X2), in data set [1], the “Performance evaluation: Stability (residual rate of cyclic peptide after alkali treatment)” value is on record as “A (The residual rate of the cyclic peptide is 70% or more.)”. For the same compound, in data set [2] (setting [3]), the Kd is < 50 nM.
